Laboratory results reported in patent publication US20250312499A1, “KISSPEPTIN RECEPTOR (KISS1R) TARGETED THERAPEUTICS AND USES THEREOF” (priority 2024, published 2025).
Square brackets hold non-standard residues; d marks the D form. Peptide text beside a SMILES is read from it. * marks the point of attachment. DOTA = O=C(O)CN1CCN(CC(=O)O)CCN(CC(=O)*)CCN(CC(=O)O)CC1; Gly(N-(3-F-4-Me-benzyl)) = Cc1ccc(CNCC(=O)*)cc1F; Butanoyl(4-(4-I-phenyl)) = O=C(CCCc1ccc(I)cc1)*; Gly(N-3-F-4-Me-benzyl) = Cc1ccc(CNCC(=O)O)cc1F; Bpa = N[C@@H](Cc1ccc(C(=O)c2ccccc2)cc1)C(=O)O; Butanoyl(4-(4-MePh)) = Cc1ccc(CCCC(=O)*)cc1; Api(1-amidino) = N=C(N)N1CCC(N)(C(=O)O)CC1; Hydrocinnamoyl(4-Me) = Cc1ccc(CCC(=O)*)cc1; Bip = N[C@@H](Cc1ccc(-c2ccccc2)cc1)C(=O)O; Hydrocinnamoyl(4-I) = O=C(CCc1ccc(I)cc1)*; Phe(4-CN) = N#Cc1ccc(C[C@H](N)C(=O)O)cc1; d2Nal = N[C@H](Cc1ccc2ccccc2c1)C(=O)O; Cha = N[C@@H](CC1CCCCC1)C(=O)O; Octanoyl = CCCCCCCC(=O)*; Api = NC1(C(=O)O)CCNCC1; PEG2 = NCCOCCOCCC(=O)O; Ahx = NCCCCCC(=O)O; azaGly = NNC(=O)O; Sar = CNCC(=O)O

molecular target: human kisspeptin receptor (Homo sapiens (Human), UniProt Q969F8); assay: Human KISS1R binding assay (membrane competition binding); settings: 90 min at room temperature; competition with 0.2 nM [125I]-metastin (45-54); Flp-In T-Rex 293 kisspeptin membranes; metal complexes nonradioactive Ga, In, Lu; read-out: hKiSSR Binding Ki (90 min)
Sequence (Q969F8 whole entry): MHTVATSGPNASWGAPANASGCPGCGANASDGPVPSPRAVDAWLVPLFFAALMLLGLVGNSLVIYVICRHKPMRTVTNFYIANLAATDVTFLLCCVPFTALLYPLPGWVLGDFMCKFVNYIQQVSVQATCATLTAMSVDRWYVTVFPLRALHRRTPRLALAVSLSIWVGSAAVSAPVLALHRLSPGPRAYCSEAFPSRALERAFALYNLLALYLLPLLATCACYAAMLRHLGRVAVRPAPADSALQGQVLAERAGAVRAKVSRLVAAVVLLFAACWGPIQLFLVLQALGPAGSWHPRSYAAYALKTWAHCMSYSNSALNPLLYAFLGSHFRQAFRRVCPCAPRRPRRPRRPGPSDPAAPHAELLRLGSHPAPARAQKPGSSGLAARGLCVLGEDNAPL
In short: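 Membranes from tetracycline-induced (48 h) Flp-In T-Rex 293 cells expressing receptor, 5–10 μg, incubated 90 min at room temperature with 0.2 nM [125I]-metastin (45-54) and competitor (typically 0–10,000 nM) in Tris/Mg/Ca/EGTA/0.1% BSA, pH 7.4. Filtration, washing, counting; Ki by non-linear regression.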

Ki, < 10 nM:
CCCCCCCC(=O)N[C@H](Cc1ccc(O)cc1)C(=O)N[C@@H](CCCCNC(=O)CN1CCN(CC(=O)O)CCN(CC(=O)O)CCN(CC(=O)O)CC1)C(=O)N[C@@H](CC(N)=O)C(=O)N[C@H](C(=O)N[C@@H](Cc1ccccc1)C(=O)NNC(=O)N[C@@H](CC(C)C)C(=O)NC1(C(=O)N[C@@H](Cc2ccc(O)cc2)C(N)=O)CCN(C(=N)N)CC1)[C@@H](C)O [Compound 332] (Octanoyl-[dY]K(DOTA)NTF[azaGly]L[Api(1-amidino)]Y-NH2)
Cc1ccc(CCC(=O)NCCOCCOCCC(=O)N[C@H](Cc2ccc(O)cc2)C(=O)N[C@@H](CCCCNC(=O)CN2CCN(CC(=O)O)CCN(CC(=O)O)CCN(CC(=O)O)CC2)C(=O)N[C@@H](CC(N)=O)C(=O)N[C@H](C(=O)N[C@@H](Cc2ccccc2)C(=O)NNC(=O)N[C@@H](CC(C)C)C(=O)NC2(C(=O)N[C@@H](Cc3ccc(C#N)cc3)C(N)=O)CCN(C(=N)N)CC2)[C@@H](C)O)cc1 [Compound 333] ({Hydrocinnamoyl(4-Me)-PEG2}-[dY]K(DOTA)NTF[azaGly]L[Api(1-amidino)][Phe(4-CN)]-NH2)
CC(C)C[C@H](NC(=O)NNC(=O)[C@H](Cc1ccccc1)NC(=O)[C@@H](NC(=O)[C@H](CC(N)=O)NC(=O)[C@@H](CCCCNC(=O)CN1CCN(CC(=O)O)CCN(CC(=O)O)CCN(CC(=O)O)CC1)NC(=O)[C@@H](Cc1ccc(O)cc1)NC(=O)CCOCCOCCNC(=O)CCc1ccc(I)cc1)[C@@H](C)O)C(=O)NC1(C(=O)N[C@@H](Cc2c[nH]c3ccccc23)C(N)=O)CCN(C(=N)N)CC1 [Compound 334] ({Hydrocinnamoyl(4-I)-PEG2}-[dY][dK](DOTA)NTF[azaGly]L[Api(1-amidino)]W-NH2)
Cc1ccc(CCCC(=O)NCCCC[C@@H](NC(=O)CCCCCNC(=O)CN2CCN(CC(=O)O)CCN(CC(=O)O)CCN(CC(=O)O)CC2)C(=O)N[C@H](Cc2ccc(O)cc2)C(=O)N[C@H](Cc2ccc3ccccc3c2)C(=O)N[C@@H](CC(N)=O)C(=O)N[C@H](C(=O)N[C@@H](Cc2ccccc2)C(=O)NNC(=O)N[C@@H](CC(C)C)C(=O)NC2(C(=O)N[C@@H](Cc3c[nH]c4ccccc34)C(N)=O)CCN(C(=N)N)CC2)[C@@H](C)O)cc1 [Compound 335] ({DOTA-Ahx}-[dK](Butanoyl(4-(4-MePh)))[dY][d2Nal]NTF[azaGly]L[Api(1-amidino)]W-NH2)
CC(C)C[C@H](NC(=O)NNC(=O)[C@H](Cc1ccccc1)NC(=O)[C@@H](NC(=O)[C@H](CC(N)=O)NC(=O)[C@@H](Cc1ccc2ccccc2c1)NC(=O)[C@@H](Cc1ccc(O)cc1)NC(=O)[C@@H](CCCCNC(=O)CCCc1ccc(I)cc1)NC(=O)CCCCCNC(=O)CN1CCN(CC(=O)O)CCN(CC(=O)O)CCN(CC(=O)O)CC1)[C@@H](C)O)C(=O)NC1(C(=O)N[C@@H](Cc2c[nH]c3ccccc23)C(N)=O)CCN(C(=N)N)CC1 [Compound 336] ({DOTA-Ahx}-[dK](Butanoyl(4-(4-I-phenyl)))[dY][d2Nal]NTF[azaGly]L[Api(1-amidino)]W-NH2)
CC(C)C[C@H](NC(=O)NNC(=O)[C@H](Cc1ccccc1)NC(=O)[C@@H](NC(=O)[C@H](CC(N)=O)NC(=O)[C@@H](Cc1ccc2ccccc2c1)NC(=O)[C@@H](Cc1ccc(O)cc1)NC(=O)CCCCCNC(=O)[C@@H](CCCCNC(=O)CCCc1ccc(I)cc1)NC(=O)CCCCCNC(=O)CN1CCN(CC(=O)O)CCN(CC(=O)O)CCN(CC(=O)O)CC1)[C@@H](C)O)C(=O)NC1(C(=O)N[C@@H](Cc2c[nH]c3ccccc23)C(N)=O)CCN(C(=N)N)CC1 [Compound 337] ({DOTA-Ahx}-[dK](Butanoyl(4-(4-I-phenyl)))[Ahx][dY][d2Nal]NTF[azaGly]L[Api(1-amidino)]W-NH2)
Cc1ccc(CCC(=O)NCCOCCOCCC(=O)N[C@H](Cc2ccc(O)cc2)C(=O)N[C@H](CCCCNC(=O)CN2CCN(CC(=O)O)CCN(CC(=O)O)CCN(CC(=O)O)CC2)C(=O)N[C@@H](CC(N)=O)C(=O)N[C@H](C(=O)N[C@@H](Cc2ccccc2)C(=O)NNC(=O)N[C@@H](CC(C)C)C(=O)NC2(C(=O)N[C@@H](Cc3c[nH]c4ccccc34)C(N)=O)CCN(C(=N)N)CC2)[C@@H](C)O)cc1 [Compound 338] ({Hydrocinnamoyl(4-Me)-PEG2}-[dY][dK](DOTA)NTF[azaGly]L[Api(1-amidino)]W-NH2)
CC(C)C[C@H](NC(=O)NNC(=O)[C@H](Cc1ccccc1)NC(=O)[C@@H](NC(=O)[C@H](CC(N)=O)NC(=O)[C@@H](Cc1ccc2ccccc2c1)NC(=O)[C@@H](Cc1ccc(O)cc1)NC(=O)CCCCCNC(=O)CN1CCN(CC(=O)O)CCN(CC(=O)O)CCN(CC(=O)O)CC1)[C@@H](C)O)C(=O)NC1(C(=O)N[C@H](Cc2c[nH]c3ccccc23)C(N)=O)CCNCC1 [Compound 339] ({DOTA-Ahx}-[dY][d2Nal]NTF[azaGly]L[Api][dW]-NH2)
CNCC(=O)N1CCC(NC(=O)[C@H](CC(C)C)NC(=O)NNC(=O)[C@H](Cc2ccccc2)NC(=O)[C@@H](NC(=O)[C@H](CC(N)=O)NC(=O)[C@H](Cc2ccc(C(=O)c3ccccc3)cc2)NC(=O)[C@@H](Cc2ccc(O)cc2)NC(=O)CCCCCNC(=O)CN2CCN(CC(=O)O)CCN(CC(=O)O)CCN(CC(=O)O)CC2)[C@@H](C)O)(C(=O)N[C@H](Cc2c[nH]c3ccccc23)C(N)=O)CC1 [Compound 345] ({DOTA-Ahx}-[dY][Bpa]NTF[azaGly]L[Api](Sar)[dW]-NH2)
CNCC(=O)N1CCC(NC(=O)[C@H](CC(C)C)NC(=O)NNC(=O)[C@H](Cc2ccccc2)NC(=O)[C@@H](NC(=O)[C@H](CC(N)=O)NC(=O)[C@H](Cc2ccc(C(=O)c3ccccc3)cc2)NC(=O)[C@@H](Cc2ccc(O)cc2)NC(=O)CCCCCNC(=O)CN2CCN(CC(=O)O)CCN(CC(=O)O)CCN(CC(=O)O)CC2)[C@@H](C)O)(C(=O)N[C@@H](Cc2c[nH]c3ccccc23)C(N)=O)CC1 [Compound 346] ({DOTA-Ahx}-[dY][Bpa]NTF[azaGly]L[Api](Sar)W-NH2)
CCCCCCCC(=O)N[C@H](Cc1ccc(O)cc1)C(=O)N[C@H](CCCCNC(=O)CN1CCN(CC(=O)O)CCN(CC(=O)O)CCN(CC(=O)O)CC1)C(=O)N[C@@H](CC(N)=O)C(=O)N[C@H](C(=O)N[C@@H](CC1CCCCC1)C(=O)NNC(=O)N[C@@H](CC(C)C)C(=O)NC1(C(=O)N[C@H](Cc2c[nH]c3ccccc23)C(N)=O)CCN(C(=O)CNC)CC1)[C@@H](C)O [Compound 355] (Octanoyl-[dY][dK](DOTA)NT[Cha][azaGly]L[Api](Sar)[dW]-NH2)
CNCC(=O)N1CCC(NC(=O)[C@H](CC(C)C)NC(=O)NNC(=O)[C@H](CC2CCCCC2)NC(=O)[C@@H](NC(=O)[C@H](CC(N)=O)NC(=O)[C@H](CCCCNC(=O)CN2CCN(CC(=O)O)CCN(CC(=O)O)CCN(CC(=O)O)CC2)NC(=O)[C@@H](Cc2ccc(O)cc2)NC(=O)CCOCCOCCNC(=O)CCc2ccc(C)cc2)[C@@H](C)O)(C(=O)N[C@H](Cc2c[nH]c3ccccc23)C(N)=O)CC1 [Compound 356] ({Hydrocinnamoyl(4-Me)-PEG2}-[dY]K(DOTA)NT[Cha][azaGly]L[Api](Sar)[dW]-NH2)
CNCC(=O)N1CCC(NC(=O)[C@H](CC(C)C)NC(=O)NNC(=O)[C@H](Cc2ccccc2)NC(=O)[C@@H](NC(=O)[C@H](CC(N)=O)NC(=O)[C@@H](CCCCNC(=O)CN2CCN(CC(=O)O)CCN(CC(=O)O)CCN(CC(=O)O)CC2)NC(=O)[C@@H](Cc2ccc(O)cc2)NC(=O)CCOCCOCCNC(=O)CCc2ccc(C)cc2)[C@@H](C)O)(C(=O)N[C@H](Cc2c[nH]c3ccccc23)C(N)=O)CC1 [Compound 357] ({Hydrocinnamoyl(4-Me)-PEG2}-[dY][dK](DOTA)NTF[azaGly]L[Api](Sar)[dW]-NH2)
CNCC(=O)N1CCC(NC(=O)[C@H](CC(C)C)NC(=O)NNC(=O)[C@H](CC2CCCCC2)NC(=O)[C@@H](NC(=O)[C@H](CC(N)=O)NC(=O)[C@@H](CCCCNC(=O)CN2CCN(CC(=O)O)CCN(CC(=O)O)CCN(CC(=O)O)CC2)NC(=O)[C@@H](Cc2ccc(O)cc2)NC(=O)CCOCCOCCNC(=O)CCc2ccc(C)cc2)[C@@H](C)O)(C(=O)N[C@H](Cc2c[nH]c3ccccc23)C(N)=O)CC1 [Compound 358] ({Hydrocinnamoyl(4-Me)-PEG2}-[dY][dK](DOTA)NT[Cha][azaGly]L[Api](Sar)[dW]-NH2)
CNCC(=O)N1CCC(NC(=O)[C@H](CC(C)C)NC(=O)NNC(=O)[C@H](Cc2ccccc2)NC(=O)[C@@H](NC(=O)[C@H](CC(N)=O)NC(=O)[C@H](CCCCNC(=O)CN2CCN(CC(=O)O)CCN(CC(=O)O)CCN(CC(=O)O)CC2)NC(=O)[C@@H](Cc2ccc(O)cc2)NC(=O)CCOCCOCCNC(=O)CNCc2ccc(C)c(F)c2)[C@@H](C)O)(C(=O)N[C@H](Cc2c[nH]c3ccccc23)C(N)=O)CC1 [Compound 359] (H-[Gly(N-3-F-4-Me-benzyl)][PEG2][dY]K(DOTA)NTF[azaGly]L[Api](Sar)[dW]-NH2)
CNCC(=O)N1CCC(NC(=O)[C@H](CC(C)C)NC(=O)NNC(=O)[C@H](Cc2ccccc2)NC(=O)[C@@H](NC(=O)[C@H](CC(N)=O)NC(=O)[C@H](CCCCNC(=O)CN2CCN(CC(=O)O)CCN(CC(=O)O)CCN(CC(=O)O)CC2)NC(=O)[C@@H](Cc2ccc(O)cc2)NC(=O)CNCc2ccc(C)c(F)c2)[C@@H](C)O)(C(=O)N[C@H](Cc2c[nH]c3ccccc23)C(N)=O)CC1 [Compound 360] (H-[Gly(N-3-F-4-Me-benzyl)][dY]K(DOTA)NTF[azaGly]L[Api](Sar)[dW]-NH2)
Cc1ccc(CNCC(=O)N2CCC(NC(=O)[C@H](CC(C)C)NC(=O)NNC(=O)[C@H](Cc3ccccc3)NC(=O)[C@@H](NC(=O)[C@H](CC(N)=O)NC(=O)[C@H](Cc3ccc(-c4ccccc4)cc3)NC(=O)[C@@H](Cc3ccc(O)cc3)NC(=O)CCCCCNC(=O)CN3CCN(CC(=O)O)CCN(CC(=O)O)CCN(CC(=O)O)CC3)[C@@H](C)O)(C(=O)N[C@@H](Cc3c[nH]c4ccccc34)C(N)=O)CC2)cc1F [Compound 363] ({DOTA-Ahx}-[dY][Bip]NTF[azaGly]L[Api](Gly(N-(3-F-4-Me-benzyl)))W-NH2)
